This passage reports IC50 results from US10799605B2 (3B PHARMACEUTICALS GMBH, priority 2014, dated 2020).

Molecules are shown by their SMILES.

Usually IC50 stands for the concentration at which inhibition is half-maximal.

Experiment [1] addresses T1, NTR1 (Homo sapiens (Human), UniProt P30989). The experiment is described as follows: Radioligand binding assay NTR1 (example part II). Conditions: 0.05 nM 125I-(Tyr3-neurotensin), 60 min at 4° C.; read-out: IC50 [nM] RLB. The method, then: In order to determine the binding affinity of compounds comprising a radiolabel for NTR1, a radioligand binding assay was carried out. A radioligand is a radioactive biochemical substance that is used for diagnosis or for research-oriented study of cellular receptor systems of the body. In […] systems it is often used to quantify the binding of a test molecule to the binding site of radioligand. The higher the affinity of the molecule, the more radioligand is displaced from the binding site. The amount of bound radioligand can be measured by scintillation counting and thereby quantified. This assay is commonly used to calculate binding constants of molecules to receptors.
The NTR1 radioligand binding assay was performed by Cerep (Celle l'Evescault, France; Catalog reference 0109) according to Vita et al., FEBS Lett., 1993, 317, 139-142. NTR1 was prepared from CHO cells recombinantly expressing the human receptor and incubated with 0.05 nM ^125I-(Tyr^3-neurotensin) and serial dilutions of the test compounds. […] The result for each test compound is expressed as IC50 concentration and provides a measure for the affinity of the test compound for NTR1.

In experiment [2] the target is T1, NTR1. The experiment is described as follows: Functional Ca2+ mobilisation assay (example part II). Conditions: antagonist assay. It is filed as cell-based. The text has this: Ca^2+ ions are usually kept at nanomolar levels in the cytosol of cells, and act in a number of signal transduction pathways as second messengers. […] Changes in calcium ion concentration in standard assay protocols can be readily detected with fluorescent dyes that emit light when changes in intracellular Ca2^+ ion concentration occur. Given the transient nature of these responses, they are often read with instrumentation that has ‘inject and read’ capability.
HT29 or NTR1-expressing HEK293 cells were trypsinized and seeded into black flat clear-bottom 96-well plates (Corning, Amsterdam, The Netherlands) at 6×10^5 cells per well. After 24 h incubation at 37° C. and 5% CO2, cells were washed twice with wash buffer (130 mM NaCl, 5 mM KCl, 10 mM Hepes, 2 mM CaCl2, 10 mM Glucose, pH 7.4) and loaded with 100 μl of Ca5 dye (Molecular Devices, Biberach, Germany) for 1 h at 37° C. and 5% CO2. For agonist assays, serial dilutions of agonistic substances were added to the cells loaded with dye and the change of the fluorescent signal was recorded continually for approx. 90 s using a FlexStation II (Molecular Devices, Biberach, Germany). Addition of wash buffer served as a control. Thus, EC50 concentrations for each compound were computed and provided a measure for the potency of the substance. For antagonist assays, cells loaded with 100 μl of Ca5-dye were pre-incubated with serial dilutions of antagonistic substances for 30 min, before the EC80-concentration of agonist was added to the cells and the change of the fluorescent signal was recorded continually for approx. 90 s. Thus, IC50 concentrations were computed for each compound and provided a measure for the inhibitory activity of the compounds at the NTR1.
(Calcium assays in cells follow changes in intracellular calcium, usually with a dye or a luminescent sensor.)

T1 sequence (P30989 whole entry): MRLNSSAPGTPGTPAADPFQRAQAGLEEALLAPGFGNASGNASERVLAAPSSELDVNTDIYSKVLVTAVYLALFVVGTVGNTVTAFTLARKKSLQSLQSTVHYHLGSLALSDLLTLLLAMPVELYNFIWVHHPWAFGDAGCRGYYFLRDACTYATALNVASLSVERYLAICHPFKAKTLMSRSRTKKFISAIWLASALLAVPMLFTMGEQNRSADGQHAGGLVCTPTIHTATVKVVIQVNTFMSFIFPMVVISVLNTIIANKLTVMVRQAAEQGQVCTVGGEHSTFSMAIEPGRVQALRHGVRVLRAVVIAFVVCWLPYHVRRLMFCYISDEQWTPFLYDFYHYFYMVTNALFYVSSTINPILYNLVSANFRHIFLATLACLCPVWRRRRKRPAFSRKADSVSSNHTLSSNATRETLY

Consider `COc1cccc(OC)c1-c1cc(C(=O)NC2(C(=O)O)C3CC4CC(C3)CC2C4)nn1-c1ccc(C(=O)N(C)CCCN(C)CCCN(C)C(=O)CCCCCNC(=O)CN2CCN(CC(=O)O)CCN(CC(=O)O)CCN(CC(=O)O)CC2)cc1C(C)C` (stereo not drawn) [(IIIc), 2-{[1-(4-{[3-({3-[(DOTA-Ahx)-methyl-amino]-propyl}-methyl-amino)-propyl]-methyl-carbamoyl}-2-isopropyl-phenyl)-5-(2,6-dimethoxy-phenyl)-1H-pyrazole-3-carbonyl]-amino}-adamantane-2-carboxylic acid], for which the IC50 turned out to be 5.7 nM on NTR1 [1] and 11.8 nM at NTR1 [2].

For the compound `COc1cccc(OC)c1-c1cc(C(=O)NC2(C(=O)O)C3CC4CC(C3)CC2C4)nn1-c1ccc(C(=O)N(C)CCCN(C)CCCN(C)C(=O)CCC(=O)NCCCOCCOCCOCCCNC(=O)CCC(C(=O)O)N2CCN(CC(=O)O)CCN(CC(=O)O)CC2)cc1C(C)C` (stereo not drawn) [(IIIe), 2-{[1-(4-{[3-({3-[(NODAGA-Ttds)-methyl-amino]-propyl}-methyl-amino)-propyl]-methyl-carbamoyl}-2-isopropyl-phenyl)-5-(2,6-dimethoxy-phenyl)-1H-pyrazole-3-carbonyl]-amino}-adamantane-2-carboxylic acid], the IC50 is 4.9 nM at NTR1 [1] and 21.4 nM on NTR1 [2].

`COc1cccc(OC)c1-c1cc(C(=O)NC2(C(=O)O)C3CC4CC(C3)CC2C4)nn1-c1ccc(C(=O)N(CCCNC(=O)CCC(=O)NCCCOCCOCCOCCCNC(=O)CN2CCN(CC(=O)O)CCN(CC(=O)O)CCN(CC(=O)O)CC2)CCCN(C)C)cc1C(C)C` (stereo not drawn) [(Vb), 2-{[5-(2,6-Dimethoxy-phenyl)-1-(4-{(3-dimethylamino-propyl)-[3-(DOTA-Ttds-amino)-propyl]-carbamoyl}-2-isopropyl-phenyl)-1H-pyrazole-3-carbonyl]-amino}-adamantane-2-carboxylic]: the IC50 stood at 2.4 nM on NTR1 [1] and 26 nM at NTR1 [2].

With `COc1cccc(OC)c1-c1cc(C(=O)NC2(C(=O)O)C3CC4CC(C3)CC2C4)nn1-c1ccc(C(=O)N(C)CCCN(C)CCCN(C)C(=O)CCC(C(=O)O)N2CCN(CC(=O)O)CCN(CC(=O)O)CC2)cc1C(C)C` (stereo not drawn) [(IIId), 2-{[1-(4-{[3-({3-[(NODAGA)-methyl-amino]-propyl}-methyl-amino)-propyl]-methyl-carbamoyl}-2-isopropyl-phenyl)-5-(2,6-dimethoxy-phenyl)-1H-pyrazole-3-carbonyl]-amino}-adamantane-2-carboxylic acid], the IC50 on NTR1 [1] turned out to be 3.7 nM; on NTR1 [2], 14.5 nM.

Take `COc1cccc(OC)c1-c1cc(C(=O)NC2(C(=O)O)C3CC4CC(C3)CC2C4)nn1-c1ccc(C(=O)N(C)CCCN(C)CCCN(C)C(=O)c2ccc(F)cc2)cc1C(C)C` (stereo not drawn) [(IIIg), 2-{[5-(2,6-Dimethoxy-phenyl)-1-(4-{[3-({3-[(4-fluoro-benzoyl)-methyl-amino]-propyl}-methyl-amino)-propyl]-methyl-carbamoyl}-2-isopropyl-phenyl)-1H-pyrazole-3-carbonyl]-amino}-adamantane-2-carboxylic acid]: the IC50 at NTR1 [1] came to 2.3 nM; against NTR1 [2], 14.5 nM.

As for `COc1cccc(OC)c1-c1cc(C(=O)NC2(C(=O)O)C3CC4CC(C3)CC2C4)nn1-c1ccc(C(=O)N(C)CCCN(C)CCCN(C)C(=O)CCC(=O)NCCCOCCOCCOCCCNC(=O)CN2CCN(CC(=O)O)CCN(CC(=O)O)CCN(CC(=O)O)CC2)cc1C(C)C` (stereo not drawn) [(IIIb), 2-{[1-(4-{[3-({3-[(DOTA-Ttds)-methyl-amino]-propyl}-methyl-amino)-propyl]-methyl-carbamoyl}-2-isopropyl-phenyl)-5-(2,6-dimethoxy-phenyl)-1H-pyrazole-3-carbonyl]-amino}-adamantane-2-carboxylic acid], the IC50 came to 5.2 nM on NTR1 [1] and 16.6 nM at NTR1 [2].
